{
  "source": "patent US12227488B2",
  "about": "“Small molecule degraders of Helios and methods of use” (DANA-FARBER CANCER INSTITUTE, INC., priority 2018, dated 2025)",
  "key": {"[1]": {"system": "IKZF2", "assay": "Cellular degradation assay, eGFP-IKZF2Δ fusion with mCherry reporter in Flp-In 293 cells", "assay_type": "cell-based", "conditions": "for IKZF2 GFP/RFP Relative Abundance: 5 h incubation, n=1", "summary_of_the_method": "(§1)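 DC50,5 h derived by variable-slope nonlinear fit of the per-well ratio of GFP-positive to mCherry-positive cells, imaged after 5 h compound exposure at 0.5% DMSO.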"}, "[2]": {"target": "T1, CRBN and Helios (IKZF2) (Homo sapiens, UniProt Q96SW2+Q9UKS7)", "T1 construct": "His (N); Strep (N)", "T1 sequence (Q96SW2 whole entry)": "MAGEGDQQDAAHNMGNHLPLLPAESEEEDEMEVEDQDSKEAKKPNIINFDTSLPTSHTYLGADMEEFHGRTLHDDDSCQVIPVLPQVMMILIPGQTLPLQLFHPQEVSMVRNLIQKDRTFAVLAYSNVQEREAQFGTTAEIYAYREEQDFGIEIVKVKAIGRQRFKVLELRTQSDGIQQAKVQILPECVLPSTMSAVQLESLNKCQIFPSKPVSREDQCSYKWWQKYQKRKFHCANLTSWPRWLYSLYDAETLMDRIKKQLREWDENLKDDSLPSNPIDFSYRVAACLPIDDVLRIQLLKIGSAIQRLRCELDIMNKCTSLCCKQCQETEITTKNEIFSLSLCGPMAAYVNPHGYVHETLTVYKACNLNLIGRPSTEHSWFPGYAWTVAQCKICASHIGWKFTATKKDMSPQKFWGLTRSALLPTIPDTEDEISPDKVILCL", "T1 sequence (Q9UKS7 whole entry)": "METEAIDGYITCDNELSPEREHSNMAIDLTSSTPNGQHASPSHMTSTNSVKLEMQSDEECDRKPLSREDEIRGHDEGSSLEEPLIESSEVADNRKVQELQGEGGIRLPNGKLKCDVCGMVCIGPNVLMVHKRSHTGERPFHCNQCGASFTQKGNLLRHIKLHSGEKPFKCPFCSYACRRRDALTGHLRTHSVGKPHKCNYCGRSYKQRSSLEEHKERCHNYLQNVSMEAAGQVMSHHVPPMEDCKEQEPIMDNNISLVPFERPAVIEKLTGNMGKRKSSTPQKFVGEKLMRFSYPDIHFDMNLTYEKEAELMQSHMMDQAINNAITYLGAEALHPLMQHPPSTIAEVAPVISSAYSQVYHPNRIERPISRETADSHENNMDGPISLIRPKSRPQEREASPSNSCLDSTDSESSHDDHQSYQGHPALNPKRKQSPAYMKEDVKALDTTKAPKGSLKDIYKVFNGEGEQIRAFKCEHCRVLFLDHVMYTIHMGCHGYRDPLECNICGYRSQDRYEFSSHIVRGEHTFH", "assay": "TR-FRET dimerization assay (CRBN-IKZF2 ternary complex formation)", "assay_type": "binding", "conditions": "n=1", "summary_of_the_method": "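Compound-induced IKZF2 recruitment to CRBN was read as the 520/490 nm TR-FRET ratio after 15 min at rt. The mix held biotinylated IKZF2, BODIPY-labeled CRBN bound to DDB1 lacking the BPB propeller, tracer Tb-streptavidin and compound titrations; n=1, from ≥3 technical replicates per well.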"}, "[3]": {"target": "T2, IKZF1 (Homo sapiens, UniProt Q13422)", "T2 construct": "expressed in transfected cells; host or cells: Flp-In 293", "T2 sequence (Q13422 83-213 isoform Q13422-7 limits assumed)": "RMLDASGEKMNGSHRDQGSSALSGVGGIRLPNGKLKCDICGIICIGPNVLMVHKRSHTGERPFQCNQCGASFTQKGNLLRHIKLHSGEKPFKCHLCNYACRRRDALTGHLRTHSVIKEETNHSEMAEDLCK", "T2 sequence (Q96SW2 whole entry partner, the tested form may be a part)": "as the sequence (Q96SW2 whole entry) above", "T2 sequence (Q16531 2-1140 partner limits assumed)": "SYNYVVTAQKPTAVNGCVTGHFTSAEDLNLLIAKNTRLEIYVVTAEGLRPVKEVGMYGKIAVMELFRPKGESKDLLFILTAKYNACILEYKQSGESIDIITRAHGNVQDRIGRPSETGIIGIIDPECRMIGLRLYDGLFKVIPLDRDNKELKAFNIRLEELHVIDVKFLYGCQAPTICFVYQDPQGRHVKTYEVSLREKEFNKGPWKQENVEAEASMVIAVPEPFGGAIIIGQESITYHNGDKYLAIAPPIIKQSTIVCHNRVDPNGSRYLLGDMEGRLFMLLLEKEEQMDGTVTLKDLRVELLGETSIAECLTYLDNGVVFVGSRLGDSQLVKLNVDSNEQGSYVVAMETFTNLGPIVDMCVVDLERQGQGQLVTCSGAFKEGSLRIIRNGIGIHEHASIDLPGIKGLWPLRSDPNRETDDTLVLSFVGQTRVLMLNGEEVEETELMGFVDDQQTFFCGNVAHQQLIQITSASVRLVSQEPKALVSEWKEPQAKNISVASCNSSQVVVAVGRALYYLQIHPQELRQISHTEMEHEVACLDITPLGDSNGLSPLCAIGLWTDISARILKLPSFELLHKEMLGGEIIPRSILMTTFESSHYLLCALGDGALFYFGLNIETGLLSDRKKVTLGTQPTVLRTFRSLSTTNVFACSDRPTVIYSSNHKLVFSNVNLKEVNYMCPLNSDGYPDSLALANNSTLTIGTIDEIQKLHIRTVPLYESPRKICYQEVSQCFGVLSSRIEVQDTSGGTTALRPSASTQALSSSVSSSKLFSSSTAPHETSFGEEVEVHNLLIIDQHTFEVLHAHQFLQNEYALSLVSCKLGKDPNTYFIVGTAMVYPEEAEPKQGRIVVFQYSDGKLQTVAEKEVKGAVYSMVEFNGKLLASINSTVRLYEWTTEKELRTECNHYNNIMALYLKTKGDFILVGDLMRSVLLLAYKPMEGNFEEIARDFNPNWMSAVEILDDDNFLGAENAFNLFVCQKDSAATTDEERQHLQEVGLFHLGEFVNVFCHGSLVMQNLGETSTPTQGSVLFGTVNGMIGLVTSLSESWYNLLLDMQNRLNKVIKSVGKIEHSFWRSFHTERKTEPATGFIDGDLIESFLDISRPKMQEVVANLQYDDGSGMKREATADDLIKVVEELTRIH", "assay": "Cellular degradation assay, eGFP-IKZF1Δ fusion with mCherry reporter in Flp-In 293 cells", "assay_type": "cell-based", "conditions": "for IKZF1 GFP/RFP Relative Abundance: 5 h incubation, n=1", "summary_of_the_method": "as §1"}, "[4]": {"target": "GSPT1 (Homo sapiens, UniProt P15170+Q96SW2)", "sequence (P15170 whole entry, the tested form may be a part)": "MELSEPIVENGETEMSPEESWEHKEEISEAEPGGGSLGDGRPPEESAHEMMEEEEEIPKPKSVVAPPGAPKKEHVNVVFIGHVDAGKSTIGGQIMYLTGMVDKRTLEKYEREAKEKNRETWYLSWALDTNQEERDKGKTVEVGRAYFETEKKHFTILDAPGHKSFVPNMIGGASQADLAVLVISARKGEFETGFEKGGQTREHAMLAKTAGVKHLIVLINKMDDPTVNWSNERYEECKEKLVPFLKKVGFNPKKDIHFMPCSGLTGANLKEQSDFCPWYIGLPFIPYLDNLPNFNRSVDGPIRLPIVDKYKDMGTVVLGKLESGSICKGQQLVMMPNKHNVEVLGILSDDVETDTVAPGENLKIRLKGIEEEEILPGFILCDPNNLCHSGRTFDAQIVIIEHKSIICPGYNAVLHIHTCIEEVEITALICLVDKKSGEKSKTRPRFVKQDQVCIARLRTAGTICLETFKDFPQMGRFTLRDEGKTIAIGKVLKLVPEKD", "sequence (Q96SW2 whole entry, the tested form may be a part)": "as the sequence (Q96SW2 whole entry) above", "sequence (Q16531 whole entry partner, the tested form may be a part)": "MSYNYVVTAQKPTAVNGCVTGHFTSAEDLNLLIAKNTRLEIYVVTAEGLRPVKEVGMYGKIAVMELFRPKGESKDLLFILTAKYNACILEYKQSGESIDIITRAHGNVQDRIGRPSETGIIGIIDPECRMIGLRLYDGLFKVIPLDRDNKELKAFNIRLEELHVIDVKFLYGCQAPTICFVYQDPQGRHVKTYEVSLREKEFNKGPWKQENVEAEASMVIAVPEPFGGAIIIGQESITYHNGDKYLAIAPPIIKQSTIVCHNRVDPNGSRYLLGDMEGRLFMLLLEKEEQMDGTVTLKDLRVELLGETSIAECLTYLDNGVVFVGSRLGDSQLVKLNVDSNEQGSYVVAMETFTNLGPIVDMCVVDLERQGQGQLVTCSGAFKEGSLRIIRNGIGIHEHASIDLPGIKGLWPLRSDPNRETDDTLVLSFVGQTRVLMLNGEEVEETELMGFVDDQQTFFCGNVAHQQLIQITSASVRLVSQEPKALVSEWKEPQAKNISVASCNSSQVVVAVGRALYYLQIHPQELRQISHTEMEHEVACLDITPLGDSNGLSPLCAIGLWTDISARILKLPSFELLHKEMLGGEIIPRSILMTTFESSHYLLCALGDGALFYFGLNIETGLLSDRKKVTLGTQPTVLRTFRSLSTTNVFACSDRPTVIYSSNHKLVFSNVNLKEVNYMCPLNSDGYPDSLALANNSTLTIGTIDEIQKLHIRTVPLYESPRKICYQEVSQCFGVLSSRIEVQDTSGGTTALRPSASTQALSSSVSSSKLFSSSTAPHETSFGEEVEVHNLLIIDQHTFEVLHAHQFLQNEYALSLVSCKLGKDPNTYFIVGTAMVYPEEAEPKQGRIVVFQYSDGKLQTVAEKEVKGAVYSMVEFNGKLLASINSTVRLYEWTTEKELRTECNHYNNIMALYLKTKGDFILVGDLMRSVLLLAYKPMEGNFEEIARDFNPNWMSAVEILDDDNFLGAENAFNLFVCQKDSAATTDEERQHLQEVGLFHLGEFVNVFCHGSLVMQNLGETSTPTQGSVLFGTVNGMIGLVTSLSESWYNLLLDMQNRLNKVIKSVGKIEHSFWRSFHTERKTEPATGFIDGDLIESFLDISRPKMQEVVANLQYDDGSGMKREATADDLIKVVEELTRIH", "assay": "Cellular degradation assay, eGFP-GSPT1 fusion with mCherry reporter in Flp-In 293 cells", "assay_type": "cell-based", "parameters": "expressed in transfected cells; host or cells: Flp-In 293", "conditions": "for GSPT1 GFP/RFP Relative Abundance: 5 h incubation, n=1", "summary_of_the_method": "as §1"}, "[5]": {"conditions": "compound concentration 2.00E−05"}, "[6]": {"conditions": "compound concentration 2.00E−06"}, "[7]": {"conditions": "compound concentration 2.00E−07"}, "[8]": {"conditions": "compound concentration 6.6667E−05"}, "[9]": {"conditions": "compound concentration 6.6667E−06"}, "[10]": {"conditions": "compound concentration 6.6667E−07 (667 nM)"}, "[11]": {"conditions": "half degradation at 5 h (DC50,5 h), triplicate, 11 point dose response"}},
  "data": [
    {"smiles": "Cc1ccc(NCc2cccc(NC3=CC(=O)N(C4CCC(=O)NC4=O)C3=O)c2)cc1Cl", "note": "(stereo not drawn) [Compound 63, 3-(3-((3-(((3-chloro-4-methylphenyl)amino)methyl)-phenyl)amino)-2,5-dioxo-2,5-dihydro-1H-pyrrol-1-yl)piperidine-2,6-dione]", "values": [
      {"measurement": "IKZF2 GFP/RFP Relative Abundance", "setting": "[1]; [5]", "value": 0.428},
      {"measurement": "IKZF2 GFP/RFP Relative Abundance", "setting": "[1]; [6]", "value": 0.339},
      {"measurement": "IKZF2 GFP/RFP Relative Abundance", "setting": "[1]; [7]", "value": 0.470},
      {"measurement": "TR-FRET-IKZF2 (Normalized to CC-885)", "setting": "[2]; [8]", "value": 0.703},
      {"measurement": "TR-FRET-IKZF2 (Normalized to CC-885)", "setting": "[2]; [9]", "value": 0.649},
      {"measurement": "TR-FRET-IKZF2 (Normalized to CC-885)", "setting": "[2]; [10]", "value": 0.625},
      {"measurement": "IKZF1 GFP/RFP Relative Abundance", "setting": "[3]; [5]", "value": 0.081},
      {"measurement": "IKZF1 GFP/RFP Relative Abundance", "setting": "[3]; [6]", "value": 0.068},
      {"measurement": "IKZF1 GFP/RFP Relative Abundance", "setting": "[3]; [7]", "value": 0.086},
      {"measurement": "GSPT1 GFP/RFP Relative Abundance", "setting": "[4]; [5]", "value": 0.274},
      {"measurement": "GSPT1 GFP/RFP Relative Abundance", "setting": "[4]; [6]", "value": 0.722},
      {"measurement": "GSPT1 GFP/RFP Relative Abundance", "setting": "[4]; [7]", "value": 0.844}
    ]},
    {"smiles": "Cc1ccc(NC(=O)NCCc2cccc(NC3=CC(=O)N(C4CCC(=O)NC4=O)C3=O)c2)cc1Cl", "note": "(stereo not drawn) [Compound 62, 1-(3-chloro-4-methylphenyl)-3-(3-((1-(2,6-dioxopiperidin-3-yl)-2,5-dioxo-2,5-dihydro-1H-pyrrol-3-yl)amino)phenethyl)urea]", "values": [
      {"measurement": "IKZF2 GFP/RFP Relative Abundance", "setting": "[1]; [5]", "value": 0.040},
      {"measurement": "IKZF2 GFP/RFP Relative Abundance", "setting": "[1]; [6]", "value": 0.015},
      {"measurement": "IKZF2 GFP/RFP Relative Abundance", "setting": "[1]; [7]", "value": 0.036},
      {"measurement": "DC50", "setting": "[1]; [11]", "value": 29, "unit": "nM"},
      {"measurement": "TR-FRET-IKZF2 (Normalized to CC-885)", "setting": "[2]; [8]", "value": 1.642},
      {"measurement": "TR-FRET-IKZF2 (Normalized to CC-885)", "setting": "[2]; [9]", "value": 1.563},
      {"measurement": "TR-FRET-IKZF2 (Normalized to CC-885)", "setting": "[2]; [10]", "value": 1.483},
      {"measurement": "IKZF1 GFP/RFP Relative Abundance", "setting": "[3]; [5]", "value": 0.133},
      {"measurement": "IKZF1 GFP/RFP Relative Abundance", "setting": "[3]; [6]", "value": 0.098},
      {"measurement": "IKZF1 GFP/RFP Relative Abundance", "setting": "[3]; [7]", "value": 0.109},
      {"measurement": "DC50", "setting": "[3]; [11]", "value": 26, "unit": "nM"},
      {"measurement": "GSPT1 GFP/RFP Relative Abundance", "setting": "[4]; [5]", "value": 0.353},
      {"measurement": "GSPT1 GFP/RFP Relative Abundance", "setting": "[4]; [6]", "value": 1.021},
      {"measurement": "GSPT1 GFP/RFP Relative Abundance", "setting": "[4]; [7]", "value": 1.208},
      {"measurement": "DC50", "setting": "[4]; [11]", "value": "> 1000", "unit": "nM"}
    ]},
    {"smiles": "Cc1ccc(NC(=O)OCc2cccc(NC3=CC(=O)N(C4CCC(=O)NC4=O)C3=O)c2)cc1Cl", "note": "(stereo not drawn) [Compound 48, 3-((1-(2,6-dioxopiperidin-3-yl)-2,5-dioxo-2,5-dihydro-1H-pyrrol-3-yl)amino)benzyl (3-chloro-4-methylphenyl)carbamate]", "values": [
      {"measurement": "IKZF2 GFP/RFP Relative Abundance", "setting": "[1]; [5]", "value": 1.053},
      {"measurement": "IKZF2 GFP/RFP Relative Abundance", "setting": "[1]; [6]", "value": 1.076},
      {"measurement": "IKZF2 GFP/RFP Relative Abundance", "setting": "[1]; [7]", "value": 1.057},
      {"measurement": "TR-FRET-IKZF2 (Normalized to CC-885)", "setting": "[2]; [8]", "value": 0.140},
      {"measurement": "TR-FRET-IKZF2 (Normalized to CC-885)", "setting": "[2]; [9]", "value": 0.079},
      {"measurement": "TR-FRET-IKZF2 (Normalized to CC-885)", "setting": "[2]; [10]", "value": 0.044},
      {"measurement": "IKZF1 GFP/RFP Relative Abundance", "setting": "[3]; [5]", "value": 1.041},
      {"measurement": "IKZF1 GFP/RFP Relative Abundance", "setting": "[3]; [6]", "value": 0.903},
      {"measurement": "IKZF1 GFP/RFP Relative Abundance", "setting": "[3]; [7]", "value": 1.000},
      {"measurement": "GSPT1 GFP/RFP Relative Abundance", "setting": "[4]; [5]", "value": 1.591},
      {"measurement": "GSPT1 GFP/RFP Relative Abundance", "setting": "[4]; [6]", "value": 0.365},
      {"measurement": "GSPT1 GFP/RFP Relative Abundance", "setting": "[4]; [7]", "value": 0.579}
    ]},
    {"smiles": "Cc1ccc(NC(=O)Nc2cccc(NC3=CC(=O)N(C4CCC(=O)NC4=O)C3=O)c2)cc1C", "note": "(stereo not drawn) [Compound 55, 1-(3,4-dimethylphenyl)-3-(3-((1-(2,6-dioxopiperidin-3-yl)-2,5-dioxo-2,5-dihydro-1H-pyrrol-3-yl)amino)phenyl)urea]", "values": [
      {"measurement": "IKZF2 GFP/RFP Relative Abundance", "setting": "[1]; [5]", "value": 1.029},
      {"measurement": "IKZF2 GFP/RFP Relative Abundance", "setting": "[1]; [6]", "value": 0.936},
      {"measurement": "IKZF2 GFP/RFP Relative Abundance", "setting": "[1]; [7]", "value": 0.938},
      {"measurement": "TR-FRET-IKZF2 (Normalized to CC-885)", "setting": "[2]; [8]", "value": 0.523},
      {"measurement": "TR-FRET-IKZF2 (Normalized to CC-885)", "setting": "[2]; [9]", "value": 0.430},
      {"measurement": "TR-FRET-IKZF2 (Normalized to CC-885)", "setting": "[2]; [10]", "value": 0.321},
      {"measurement": "IKZF1 GFP/RFP Relative Abundance", "setting": "[3]; [5]", "value": 0.471},
      {"measurement": "IKZF1 GFP/RFP Relative Abundance", "setting": "[3]; [6]", "value": 0.212},
      {"measurement": "IKZF1 GFP/RFP Relative Abundance", "setting": "[3]; [7]", "value": 0.251},
      {"measurement": "GSPT1 GFP/RFP Relative Abundance", "setting": "[4]; [5]", "value": 0.096},
      {"measurement": "GSPT1 GFP/RFP Relative Abundance", "setting": "[4]; [6]", "value": 0.153},
      {"measurement": "GSPT1 GFP/RFP Relative Abundance", "setting": "[4]; [7]", "value": 0.180}
    ]}
  ]
}
